Data on four compounds can be found in patent US11261211B2, “19-NOR neuroactive steroids and methods of use thereof” (Sage Therapeutics, Inc., priority 2013, dated 2022).

For assay [1], the target named is rat brain cortical membranes ([35S]-TBPS binding, GABA receptor complex). The assay can be described thus: Steroid inhibition of [35S]-TBPS binding. Conditions: 3 nM [35S]-TBPS, in the presence of 5 μM GABA. As to the method:
TBPS binding assays using rat brain cortical membranes in the presence of 5 μM GABA has been described (Gee et al, J. Pharmacol. Exp. Ther. 1987, 241, 346-353; Hawkinson et al, Mol. Pharmacol. 1994, 46, 977-985; Lewin, A. H et al., Mol. Pharmacol. 1989, 35, 189-194).
Briefly, cortices are rapidly removed following decapitation of carbon dioxide-anesthetized Sprague-Dawley rats (200-250 g). The cortices are homogenized in 10 volumes of ice-cold 0.32 M sucrose using a glass/teflon homogenizer and centrifuged at 1500×g for 10 min at 4° C. The resultant supernatants are centrifuged at 10,000×g for 20 min at 4° C. to obtain the P2 pellets. The P2 pellets are resuspended in 200 mM NaCl/50 mM Na-K phosphate pH 7.4 buffer and centrifuged at 10,000×g for 10 min at 4° C. This washing procedure is repeated twice and the pellets are resuspended in 10 volumes of buffer. Aliquots (100 μL) of the membrane suspensions are incubated with 3 nM [^35S]-TBPS and 5 μL aliquots of test drug dissolved in dimethyl sulfoxide (DMSO) (final 0.5%) in the presence of 5 μM GABA. The incubation is brought to a final volume of 1.0 mL with buffer. […] Filter bound radioactivity is measured by liquid scintillation spectrometry. […]

The target of assay [2] is α1β2γ2 GABAA receptor (Homo sapiens (Human), UniProt P14867+P47870). The assay can be described thus: Patch clamp electrophysiology of recombinant α1β2γ2 GABAA receptors in LTK cells. Conditions: LTK, 10 μM compound, Qpatch, Ltk cells, GABA EC20 2 μM; read-out: α1β2γ2 GABA Qpatch in Ltk (Efficacy at 10 μm). The class given is cell-based. The procedure, abridged: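 Whole-cell voltage clamp at −80 mV, room temperature, in LTK cells stably expressing α1β2γ2 or CHO cells transiently expressing α4β3δ, manual or QPatch. Test article (0.01–10 μM, increasing, 30 s preincubation) then 2 μM GABA (EC20) for 2 s; potentiation = peak current with compound relative to GABA alone ×100.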

The target of assay [3] is α4β3δ GABAA receptor (Homo sapiens (Human), UniProt P28472+P48169). The assay can be described thus: Patch clamp electrophysiology of recombinant α4β3δ GABAA receptors in CHO cells. The class given is cell-based. The note with it: 10 μM compound, manual patch, GABA EC20 2 μM, read-out: α4β3δ GABA Manual Patch in CHO (Efficacy at 10 μM). Here is the method: Cellular electrophysiology is used to measure the pharmacological properties of our GABAA receptor modulators in heterologous cell systems. Each compound is tested for its ability to affect GABA mediated currents at a submaximal agonist dose (GABA EC20=2 μM). LTK cells are stably transfected with the α1β2γ2 subunits of the GABA receptor and CHO cells are transiently transfected with the α4β3δ subunits via the Lipofecatamine method. Cells were passaged at a confluence of about 50-80% and then seeded onto 35 mm sterile culture dishes containing 2 ml culture complete medium without antibiotics or antimycotics. Confluent clusters of cells are electrically coupled (Pritchett et al., 1988). Because responses in distant cells are not adequately voltage clamped and because of uncertainties about the extent of coupling (Verdoorn et al., 1990), cells were cultivated at a density that enables the recording of single cells (without visible connections to other cells).
Whole cell currents were measured with HEKA EPC-10 amplifiers using PatchMaster software or by using the high throughput QPatch platform (Sophion). Bath solution for all experiments contained (in mM): NaCl 137 mM, KCl 4 mM, CaCl2 1.8 mM, MgCl2 1 mM, HEPES 10 mM, D-Glucose 10 mM, pH (NaOH) 7.4. In some cases 0.005% cremophor was also added. Intracellular (pipette) solution contained: KCl 130 mM, MgCl2 1 mM, Mg-ATP 5 mM, HEPES 10 mM, EGTA 5 mM, pH 7.2. During experiments, cells and solutions were maintained at room temperature (19° C.-30° C.). For manual patch clamp recordings, cell culture dishes were placed on the dish holder of the microscope and continuously perfused (1 ml/min) with bath solution. After formation of a Gigaohm seal between the patch electrodes and the cell (pipette resistance range: 2.5 MΩ-6.0 MΩ; seal resistance range: >1 GΩ) the cell membrane across the pipette tip was ruptured to assure electrical access to the cell interior (whole-cell patch-configuration). For experiments using the QPatch system, cells were transferred as suspension to the QPatch system in the bath solution and automated whole cell recordings were performed.
Cells were voltage clamped at a holding potential of −80 mV. For the analysis of test articles, GABA receptors were stimulated by 2 μM GABA after sequential pre-incubation of increasing concentrations of the test article. Pre-incubation duration was 30 s and the duration of the GABA stimulus was 2 s. Test articles were dissolved in DMSO to form stock solutions (10 mM). Test articles were diluted to 0.01, 0.1, 1, and 10 μM in bath solution. All concentrations of test articles were tested on each cell. The relative percentage potentiation was defined as the peak amplitude in response to GABA EC20 in the presence of the test article divided by the peak amplitude in response to GABA EC20 alone, multiplied by 100.
(Patch clamp records ionic current or voltage across a cell membrane.)

Usually IC50 stands for the concentration that gives 50% inhibition.

`C[C@@]1(O)CC[C@H]2[C@H](CC[C@@H]3[C@@H]2CC[C@]2(C)[C@@H](C(=O)Cn4nc5cc(F)c(F)cc5n4)CC[C@@H]32)C1` [SA-53]: in assay [1], the IC50 is 10 to 50 nM. Regarding `COC[C@@]1(O)CC[C@H]2[C@@H](CC[C@@H]3[C@@H]2CC[C@]2(C)[C@@H](C(=O)Cn4cc5ccncc5n4)CC[C@@H]32)C1` [SB-45], the activity at 10 µM in assay [2] and in assay [3] was 100 to 500% throughout. With `COC[C@@]1(O)CC[C@H]2[C@@H](CC[C@@H]3[C@@H]2CC[C@]2(C)[C@@H](C(=O)Cn4nc5ccccc5n4)CC[C@@H]32)C1` [SB-50], the values for the activity at 10 µM in assay [2] and in assay [3] were 10 to 100% and 100 to 500%, respectively.

Take `C[C@]12CC[C@H]3[C@@H](CC[C@H]4C[C@@](O)(CF)CC[C@@H]43)[C@@H]1CC[C@@H]2C(=O)Cn1cc2ccc(F)cc2n1` [SG-20]: the activity at 10 µM in assay [2] and in assay [3] was 100 to 500% throughout.
